Where a name gives a salt, the structure may show the parent alone.

Assay [1] deals with cellular p-ERK in HCT116 human colorectal carcinoma / A375 human malignant melanoma cell lines. Nature of the assay: Phospho-ERK cell-based assay (ELISA), Example 4. To be noted: in either one of the cell lines (HCT116, A375), 2 h or 24 h exposure. The procedure:
Example 4 Phospho-ERK Cell-Based Assay
Compounds are tested in a cell-based phospho-ERK ELISA using the following cell lines:
HCT116 human colorectal carcinoma (ATCC)
(§1) A375 human malignant melanoma (ATCC)
(§2) Both cell lines are maintained in DMEM/F12 (1:1) media (Gibco) supplemented with 10% FCS at 37° C. in a 5% CO2 humidified incubator.
Cells are seeded in 96-well plates at 2,000 cells/well and after 24 h they are exposed to different concentrations of compounds in 0.83% DMSO. Cells are grown for a further 2 h or 24 h, fixed with formaldehyde (2% final) and permeabilised with methanol. Following blocking with TBST-3% BSA, fixed cells are incubated with primary antibody (anti-phospho ERK from rabbit) over-night at 4° C. Cells are incubated with Propidium Iodide (DNA fluorescent dye) and detection of cellular p-ERK is performed using an anti-rabbit secondary antibody conjugated to the fluorescent Alexa Fluor 488 dye (Molecular probes). The fluorescence is analysed using the Acumen Explorer (TTP Labtech), a laser-scanning microplate cytometer, and the Alexa Fluor 488 signal is normalised to the PI signal (proportional to cell number).
The EC50 is defined as the concentration at which a given compound achieves a signal half way between the baseline and the maximum response. EC50 values are calculated using the XLfit software package (version 2.0.5).
(In general: ELISA stands for enzyme-linked immunosorbent assay.)

Assay [2] deals with HCT 116 human colorectal carcinoma / A375 human malignant melanoma cell lines. As to the kind of experiment: Cell proliferation assay (CellTiter-Glo), Example 3. Type of assay: cell-based. To be noted: in either one of the cell lines (HCT 116, A375), 72 h. The procedure:
Example 3 Cell Proliferation Assay
Compounds are tested in a cell proliferation assay using the following cell lines:
HCT 116 human colorectal carcinoma (ATCC)
as §1, §2
Cells are seeded in 96-well plates at 2,000 cells/well and after 24 hours they are exposed to different concentrations of compounds in 0.83% DMSO. Cells are grown for a further 72 h, and an equal volume of CellTiter-Glo reagent (Promega) is added to each well. This lyses the cells and generates a luminescent signal proportional to the amount of ATP released (and therefore proportional to the number of cells in the well) that can be detected using a multiwell luminometer.
EC50 values are calculated using the XLfit software package (version 2.0.5).
In general terms: In ATP-based viability assays light output follows the ATP content of the culture.

As for `O=C(NOC[C@H](O)CO)c1oc2ccncc2c1Nc1ccc(I)cc1F` [Example 5, 3-(2-Fluoro-4-iodo-phenylamino)-furo[3,2-c]pyridine-2-carboxylic acid ((R)-2,3-dihydroxy-propoxy)-amide], the EC50 in assay [1] and in assay [2] was < 10 µM each time.

For `O=C(NOC1CCNCC1)c1oc2ccncc2c1Nc1ccc(I)cc1F` [Example 20, 3-(2-Fluoro-4-iodo-phenylamino)-furo[3,2-c]pyridine-2-carboxylic acid (piperidin-4-yloxy)-amide mono formate salt], the EC50 in assay [1] and in assay [2] was < 10 µM each time.

As for `CC(C)(C)OC(=O)N1CCC(ONC(=O)c2oc3ccncc3c2Nc2ccc(I)cc2F)CC1` [Example 16, 4-{[3-(2-Fluoro-4-iodo-phenylamino)-furo[3,2-c]pyridine-2-carbonyl]aminooxy}-piperidine-1-carboxylic acid tert-butyl ester], the EC50 in assay [1] and in assay [2] was < 10 µM each time.

Consider `O=C(NOC[C@H](O)CO)c1oc2c(Br)cncc2c1Nc1ccc(I)cc1F` [Example 18, 7-Bromo-3-(2-fluoro-4-iodo-phenylamino)-furo[3,2-c]pyridine-2-carboxylic acid ((R)-2,3-dihydroxy-propoxy)amide], for which the EC50 in assay [1] and in assay [2] was < 10 µM in each case.

For the compound `O=C(NOC[C@H](O)CO)c1oc2c(Cl)cncc2c1Nc1ccc(I)cc1F` [Example 138, 7-Chloro-3-(2-fluoro-4-iodo-phenylamino)-furo[3,2-c]pyridine-2-carboxylic acid ((R)-2,3-dihydroxy-propoxy)-amide], the EC50 in assay [1] and in assay [2] was < 10 µM each time.

As to `O=C(NOC[C@H](O)CO)c1oc2ccncc2c1Nc1ccc(I)cc1Cl` [Example 13, 3-(2-Chloro-4-iodo-phenylamino)-furo[3,2-c]pyridine-2-carboxylic acid ((R)-2,3-dihydroxy-propoxy)-amide], the EC50 in assay [1] and in assay [2] was < 10 µM throughout.

As to `CN(c1ccc(I)cc1F)c1c(C(=O)NOCCO)oc2ccncc12` [Example 22, 3-[(2-Fluoro-4-iodo-phenyl)-methyl-amino]-furo[3,2-c]pyridine-2-carboxylic acid (2-hydroxy-ethoxy)-amide], the EC50 in assay [1] and in assay [2] was < 10 µM throughout.

With `O=C(NOCCO)c1oc2ccncc2c1Nc1ccc(I)cc1F` [Example 10, 3-(2-Fluoro-4-iodo-phenylamino)-furo[3,2-c]pyridine-2-carboxylic acid (2-hydroxy-ethoxy)-amide], the EC50 in assay [1] and in assay [2] was < 10 µM each time.

With `CSc1ccc(Nc2c(C(=O)NOCCO)oc3ccncc23)c(F)c1` [Example 35, 3-(2-Fluoro-4-methylsulfanyl-phenylamino)-furo[3,2-c]pyridine-2-carboxylic acid (2-hydroxy-ethoxy)-amide], the EC50 in assay [1] and in assay [2] was < 10 µM each time.

As for `O=C(c1oc2ccncc2c1Nc1ccc(I)cc1F)N1CCC[C@H]1CO` [Example 79, (3-(2-fluoro-4-iodophenylamino)furo[3,2-c]pyridin-2-yl)((S)-2-(hydroxymethyl)pyrrolidin-1-yl)methanone], in assay [1], the EC50 (as a rule, the midpoint of the concentration-response curve) was < 10 µM.

Regarding `CN(OCCO)C(=O)c1oc2ccncc2c1Nc1ccc(I)cc1F` [Example 23, 3-(2-Fluoro-4-iodo-phenylamino)-furo[3,2-c]pyridine-2-carboxylic acid (2-hydroxy-ethoxyl)-methyl-amide], the EC50 in assay [1] is < 10 µM.

Consider `O=C(NCCCONC(=O)c1oc2ccncc2c1Nc1ccc(I)cc1F)c1ccncc1` [Example 48, (2-Fluoro-4-iodo-phenyl amino)-N-[3-(isonicotinamide)propoxy] furo[3,2-c]pyridine-2-carboxamide], for which the EC50 in assay [1] was < 10 µM.

Turning to `O=C(c1oc2ccncc2c1Nc1ccc(I)cc1F)N1CC[C@@H](O)C1` [Example 59, (3-(2-fluoro-4-iodophenyl amino)furo[3,2-c]pyridin-2-yl)((R)-3-hydroxypyrrolidin-1-yl)methanone], the half-maximal effective concentration (EC50) in assay [1] is < 10 µM.

`C[C@@H](O)CONC(=O)c1oc2ccncc2c1Nc1ccc(I)cc1F` [Example 117, 3-(2-Fluoro-4-iodo-phenylamino)-furo[3,2-c]pyridine-2-carboxylic acid ((R)-2-hydroxy-propoxy)-amide]: the EC50 in assay [1] is < 10 µM.

For `CN(CCO)C(=O)c1oc2ccncc2c1Nc1ccc(I)cc1F` [Example 81, 3-(2-fluoro-4-iodophenylamino)-N-(2-hydroxyethyl)-N-methylfuro[3,2-c]pyridine-2-carboxamide], in assay [1], the EC50 was < 10 µM.

Turning to `O=C(NCC[C@H](O)CO)c1oc2ccncc2c1Nc1ccc(I)cc1F` [Example 95, 3-(2-fluoro-4-iodophenylamino)-N-((S)-3,4-dihydroxybutyl)furo[3,2-c]pyridine-2-carboxamide], the EC50 in assay [1] is < 10 µM.

With `CC(C)CONC(=O)c1oc2ccncc2c1Nc1ccc(I)cc1F` [Example 42, (2-Fluoro-4-iodo-phenylamino)-N-isobutoxyfuro[3,2-c]pyridine-2-carboxamide], in assay [1], the EC50 was < 10 µM.

For the compound `O=C(c1oc2ccncc2c1Nc1ccc(I)cc1F)N1C[C@H](O)C[C@H]1CO` [Example 127, (3-(2-fluoro-4-iodophenylamino)furo[3,2-c]pyridin-2-yl)((2S,4R)-4-hydroxy-2-(hydroxymethyl)pyrrolidin-1-yl)methanone], the EC50 in assay [1] is < 10 µM.

As for `O=C(NCC(O)CO)c1oc2ccncc2c1Nc1ccc(I)cc1F` (stereo not drawn) [Example 84, 3-(2-fluoro-4-iodophenylamino)-N-(2,3-dihydroxypropyl)furo[3,2-c]pyridine-2-carboxamide], in assay [1], the EC50 is < 10 µM.

Take `O=C(c1oc2c(F)cncc2c1Nc1ccc(I)cc1F)N1C[C@H](O)[C@@H](O)C1` [Example 158, ((3S,4S)-3,4-Dihydroxy-pyrrolidin-1-yl)-[7-fluoro-3-(2-fluoro-4-iodo-phenylamino)-furo[3,2-c]pyridin-2-yl]-methanone]: in assay [1], the EC50 was < 10 µM.

On to `CC(C)(CO)ONC(=O)c1oc2ccncc2c1Nc1ccc(I)cc1F` [Example 113, N-(1-hydroxy-2-methylpropan-2-yloxy)-3-(2-Fluoro-4-iodo-phenylamino)furo[3,2-c]pyridine-2-carboxamide], for which the EC50 in assay [1] was < 10 µM.

In the case of `CC(O)CONC(=O)c1oc2ccncc2c1Nc1ccc(I)cc1F` (stereo not drawn) [Example 55, 3-(2-Fluoro-4-iodo-phenylamino)-furo[3,2-c]pyridine-2-carboxylic acid (2-hydroxy-propoxy)-amide], the EC50 in assay [1] was < 10 µM.

As to `O=C(NCCO)c1oc2ccncc2c1Nc1ccc(I)cc1F` [Example 82, 3-(2-fluoro-4-iodophenylamino)-N-(2-hydroxyethyl)furo[3,2-c]pyridine-2-carboxamide], the EC50 in assay [1] is < 10 µM.

Turning to `CC(C)ONC(=O)c1oc2ccncc2c1Nc1ccc(I)cc1F` [Example 43, (2-Fluoro-4-iodo-phenylamino)-N-isopropoxyfuro[3,2-c]pyridine-2-carboxamide], the EC50 in assay [1] was < 10 µM.

On to `CSc1ccc(Nc2c(C(=O)NOCCO)oc3c(Cl)cncc23)c(F)c1` [Example 152, 7-Chloro-3-(2-fluoro-4-methylsulfanyl-phenylamino)-furo[3,2-c]pyridine-2-carboxylic acid (2-hydroxy-ethoxy)-amide], for which, in assay [1], the EC50 is < 10 µM.

On to `O=C(NCCCONC(=O)c1oc2ccncc2c1Nc1ccc(I)cc1F)c1cccnc1` [Example 47], for which the EC50 in assay [1] was < 10 µM.

As to `CC1(O)CCN(C(=O)c2oc3ccncc3c2Nc2ccc(I)cc2F)C1` (stereo not drawn) [Example 120, (3-(2-fluoro-4-iodophenylamino)furo[3,2-c]pyridine-2-yl)(3-hydroxy-3-methylpyrrolidin-1-yl)methanone], the EC50 in assay [1] is < 10 µM.

In the case of `CC(C)(C)ONC(=O)c1oc2ccncc2c1Nc1ccc(I)cc1F` [Example 99, (2-Fluoro-4-iodo-phenylamino)-N-tert-butoxyfuro[3,2-c]pyridine-2-carboxamide], the EC50 in assay [1] was < 10 µM.

`O=C(NOC[C@H](O)CO)c1oc2c(F)cncc2c1Nc1ccc(I)cc1F` [Example 159, 7-Fluoro-3-(2-fluoro-4-iodo-phenylamino)-furo[3,2-c]pyridine-2-carboxylic acid ((R)-2,3-dihydroxy-propoxy)-amide]: the EC50 in assay [1] was < 10 µM.

In the case of `O=C(c1oc2c(F)cncc2c1Nc1ccc(I)cc1F)N1CC[C@@H](O)C1` [Example 157, [7-Fluoro-3-(2-fluoro-4-iodo-phenylamino)-furo[3,2-c]pyridin-2-yl]-((R)-3-hydroxy-pyrrolidin-1-yl)-methanone], the EC50 in assay [1] is < 10 µM.

The values are drawn from patent US20080085886A1, “Aza-benzofuranyl compounds and methods of use” (GENENTECH, INC., priority 2006, published 2008).
